Patent publication US20040260071A1, “Benzophene-linked crf and crf-like peptides for covalent labeling of corticotropin-releasing factor crf binding protein” (priority 2001, published 2004)
Non-standard residues stand in square brackets, D forms with d. Residues, ends and D or L forms follow the SMILES beside them. *: point of attachment. Benzoyl(4-benzoyl) = O=C(c1ccccc1)c1ccc(C(=O)*)cc1; Bpa = N[C@@H](Cc1ccc(C(=O)c2ccccc2)cc1)C(=O)O

What was measured:
rCRFBP = molecular target: T1, rCRFBP (Rattus norvegicus, UniProt P24388); assay: Scintillation proximity assay with [125I-Tyr0]h/rCRF as radioligand, binding to rCRFBP
T1 construct: made in house; host or cells: HEK 293 cells, stably transfected (pcDNA3); serum-free conditioned medium used directly
T1 sequence (P24388 25-322): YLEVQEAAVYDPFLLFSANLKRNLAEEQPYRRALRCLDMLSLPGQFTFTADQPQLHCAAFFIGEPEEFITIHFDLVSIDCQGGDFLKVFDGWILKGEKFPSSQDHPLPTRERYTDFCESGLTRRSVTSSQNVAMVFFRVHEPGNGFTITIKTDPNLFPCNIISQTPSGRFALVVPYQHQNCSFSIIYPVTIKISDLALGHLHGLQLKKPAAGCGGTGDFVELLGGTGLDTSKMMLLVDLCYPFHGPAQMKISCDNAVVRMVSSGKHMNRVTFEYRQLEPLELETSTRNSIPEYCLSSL
From the text: Recombinant rCRFBP containing a C-terminal His-tag was produced in human embryonic kidney (HEK) 293 cells under serum-free conditions (45).

CRFBP = molecular target: T2, CRFBP (Rattus norvegicus, UniProt P24388); conditions: relative to Svg; cited from earlier work
T2 sequence (P24388 25-322): T1 sequence (P24388 25-322)

Compound	IC50 (rCRFBP; Example 8, 95% CI given alongside, read-out: IC50 (affinity to rCRFBP)) [nM]	Decrease of affinity compared to h/rCRF^6-33 (rCRFBP; bifunctional photoprobe)	Increase of affinity to CRFBP by replacement of Glu^21 in Svg by Ala (CRFBP)
CC[C@H](C)[C@H](NC(=O)c1ccc(C(=O)c2ccccc2)cc1)C(=O)N[C@@H](CO)C(=O)N[C@@H](CC(C)C)C(=O)N[C@@H](CC(=O)O)C(=O)N[C@@H](CC(C)C)C(=O)N[C@H](C(=O)N[C@@H](Cc1ccccc1)C(=O)N[C@@H](Cc1c[nH]cn1)C(=O)N[C@@H](CC(C)C)C(=O)N[C@@H](CC(C)C)C(=O)N[C@@H](CCCNC(=N)N)C(=O)N[C@@H](CCC(=O)O)C(=O)N[C@H](C(=O)N[C@@H](CC(C)C)C(=O)N[C@@H](CCC(=O)O)C(=O)N[C@@H](CCSC)C(=O)N[C@@H](C)C(=O)N[C@@H](CCCNC(=N)N)C(=O)N[C@@H](C)C(=O)N[C@@H](CCC(=O)O)C(=O)N[C@@H](CCC(N)=O)C(=O)N[C@@H](CC(C)C)C(=O)N[C@@H](C)C(=O)N[C@@H](CCC(N)=O)C(=O)N[C@@H](CCC(N)=O)C(=O)N[C@@H](C)C(=O)N[C@@H](Cc1ccc(C(=O)c2ccccc2)cc1)C(=O)N[C@@H](CO)C(=O)O)C(C)C)[C@@H](C)O [Compound 15, [pBPhe^32] pBB-h/rCRF^6-33] ({Benzoyl(4-benzoyl)}-ISLDLTFHLLREVLEMARAEQLAQQA[Bpa]S-OH)	14	decreased by a factor of seven	
[Ala^21]Svg			two orders of magnitude
